{"source": "PubChem BioAssay AID743275", "about": "(Broad Institute, 2014)", "note": "Records with an inconclusive call do not appear. The source made the active and inactive calls.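 The calls were made as follows: active = compounds cutting cell count with a fitted half-maximal dose below twice the top dose, in every run; inconclusive = runs disagree, flat partial cut, or poor curve fit; inactive = every run called inactive.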"}
{"tested_on": "not listed separately", "assay": "growth inhibition of CAPAN-1 cells, dose response, cell-based, imaging, dry powder, set 2 (AID 743275)", "conditions": "CAPAN-1 cell number, Hoechst imaging, 14 days; at 26 µM (top of the series)"}
{"smiles": "COc1ccc2nc(NCCNC(=S)NCCCN3CCOCC3)c(C#N)cc2c1", "activity change, negative = inhibition": "-10.2% (inactive)"}
{"smiles": "Cc1cc(N2CCN(C)CC2)nc2ccc(NC(=S)N3CCN(c4ccc(Cl)cc4)CC3)cc12", "activity change, negative = inhibition": "16.1% (inactive)"}
{"tested_on": "not listed separately", "assay": "growth inhibition of CAPAN-1 cells, dose response, cell-based, imaging, dry powder, set 2 (AID 743275)", "conditions": "CAPAN-1 cell number, Hoechst imaging, 14 days; at 50 µM (top of the series)"}
{"smiles": "CN(C)CCCN(C(=O)c1nc2ccccc2s1)c1nc2ccc(F)cc2s1", "activity change, negative = inhibition": "-18.3% (inactive)"}
{"smiles": "COc1ccc(-c2oc3ncnc(NCCCN4CCOCC4)c3c2-c2ccc(OC)cc2)cc1", "activity change, negative = inhibition": "20.8% (inactive)"}
{"smiles": "Cc1ccc(C(=O)c2oc3ccccc3c2NC(=O)CN2CCN(C)CC2)cc1", "activity change, negative = inhibition": "9.01% (inactive)"}
{"smiles": "OCCNc1nc(Nc2ccccc2F)nc2ccccc12", "activity change, negative = inhibition": "25.7% (inactive)"}
{"smiles": "CCN(CC)CCCN(Cc1cc2cc3c(cc2[nH]c1=O)OCO3)C(=S)NCCCN(C)C", "activity change, negative = inhibition": "15% (inactive)"}
{"smiles": "CCCN(CCC)CCCNC(=S)Nc1ccc2nc(N3CCN(CC)CC3)cc(C)c2c1", "activity change, negative = inhibition": "-17.4% (inactive)"}
{"smiles": "CN(CCCN1CCOCC1)c1cc(-c2ccc(F)cc2)nc2ccnn12", "activity change, negative = inhibition": "-17.6% (inactive)"}
{"smiles": "CN1CCN(CC(=O)Nc2c(C(=O)c3ccccc3)oc3ccccc23)CC1", "activity change, negative = inhibition": "-11.9% (inactive)"}
{"smiles": "CN1CCN(c2ccc(NC(=O)c3cc(S(N)(=O)=O)ccc3N3CCOCC3)cc2)CC1", "activity change, negative = inhibition": "4.65% (inactive)"}
{"smiles": "c1ccc(-c2cc(N3CCC(N4CCCC4)CC3)n3nccc3n2)cc1", "activity change, negative = inhibition": "15.5% (inactive)"}
{"smiles": "COc1ccc(-c2nn(C)c3sc(C(=O)NCCCN4CCOCC4)cc23)cc1OC", "activity change, negative = inhibition": "-37% (inactive)"}
{"smiles": "CCN(CC)CCNc1nc(SC)nc2sc3c(c12)CCN(C)C3", "activity change, negative = inhibition": "7.64% (inactive)"}
{"smiles": "CN(C)c1ccc(Nc2nc(N)c3ccccc3n2)cc1", "activity change, negative = inhibition": "-26.6% (inactive)"}
{"smiles": "COc1nc(NCc2ccccc2)nc(NCc2cccnc2)n1", "activity change, negative = inhibition": "-3.86% (inactive)"}
{"smiles": "c1ccc(-c2cc(N3CCN(CCN4CCCC4)CC3)n3nccc3n2)cc1", "activity change, negative = inhibition": "-9.44% (inactive)"}
{"smiles": "Cc1cc(C)c2c(c1)c1nnc(SCCN3CCCCC3)nc1n2C", "activity change, negative = inhibition": "6.3% (inactive)"}
{"smiles": "CCNC(=O)Nc1ccc2nc(N3CCN(C)CC3)cc(C)c2c1", "activity change, negative = inhibition": "20.3% (inactive)"}
{"smiles": "Cc1cc(N2CCN(C)CC2)nc2ccc(NC(=S)NCCCN3CCN(C)CC3)cc12", "activity change, negative = inhibition": "14.2% (inactive)"}
{"smiles": "CCCN1CCN(CCCNC(=S)Nc2ccc3nc(N4CCN(CC)CC4)cc(C)c3c2)CC1", "activity change, negative = inhibition": "0.584% (inactive)"}
{"smiles": "CN1CCCN(c2cc(-c3ccccc3)nc3ccnn23)CC1", "activity change, negative = inhibition": "-7.07% (inactive)"}
{"smiles": "Cc1nccn1Cc1ccc(NC(=O)c2cccc(NC(=O)c3cccnc3)c2)cc1", "activity change, negative = inhibition": "12.8% (inactive)"}
{"smiles": "CCCNc1nc(Cl)nc(NCc2cccnc2)n1", "activity change, negative = inhibition": "4.33% (inactive)"}
{"smiles": "O=c1c2c(-c3ccccc3)csc2nc2c3ccccc3c(NCCN3CCOCC3)nn12", "activity change, negative = inhibition": "-2.92% (inactive)"}
{"smiles": "CN(C)CCCNC(=S)N(CCN(C)C)Cc1cc2cc3c(cc2[nH]c1=O)OCCO3", "activity change, negative = inhibition": "-7.72% (inactive)"}
{"smiles": "COc1ccccc1Nc1nc(NCCO)c2ccccc2n1", "activity change, negative = inhibition": "-17.4% (inactive)"}
{"smiles": "Cc1cc(N2CCN(C)CC2)nc2ccc(NC(=S)NCCCN3CCc4ccccc4C3)cc12", "activity change, negative = inhibition": "5.99% (inactive)"}
{"tested_on": "CAPAN-1 cell number, Hoechst imaging, 14 days", "assay": "growth inhibition of CAPAN-1 cells, dose response, cell-based, imaging, dry powder, set 2 (AID 743275)", "conditions": "not given", "units": {"AC50": "µM"}}
{"smiles": "CCN1CCN(c2cc(C)c3cc(NC(=O)c4ccccn4)ccc3n2)CC1", "AC50": 40.8}
{"smiles": "COc1ccc(C2NCCc3c2[nH]c2ccccc32)cc1COc1ccc(F)cc1", "note": "(stereo not given)", "AC50": 15.2}
{"smiles": "Cc1ccc2sc(N(CCCN(C)C)C(=O)c3ccc(S(=O)(=O)N(C)C4CCCCC4)cc3)nc2c1C", "AC50": 34.7}
{"smiles": "CN1CCN(CCCNC(=O)c2cc3c(-c4ccc(Cl)cc4)nn(C)c3s2)CC1", "AC50": 7.4}
{"smiles": "Cc1ccc2nc(-c3ccc(NC(=S)NC4CC(C)(C)NC(C)(C)C4)cc3)sc2c1", "AC50": 23.6}
{"smiles": "COc1ccc(OC)c(Nc2nc(NCCO)c3ccccc3n2)c1", "AC50": 30.2}
{"smiles": "CCCCN(CC)CCNC(=O)c1cc2c(-c3ccc(Cl)cc3)nn(C)c2s1", "AC50": 12.6}
{"smiles": "CN(C)CCCN(C(=O)c1ccc(C(=O)c2ccccc2)cc1)c1nc2cc3c(cc2s1)OCO3", "AC50": 30}
{"smiles": "CN(C)CCCNC(=S)NCC(c1ccc(Cl)cc1Cl)c1c[nH]c2ccccc12", "note": "(stereo not given)", "AC50": 17.7}
{"smiles": "COc1ccc2oc(C(=O)c3ccccc3)c(NC(=O)CN3CCN(C)CC3)c2c1", "AC50": 38.3}
{"smiles": "COc1ccc(OC)c(Nc2nc(NCCCO)c3ccccc3n2)c1", "AC50": 24.6}
{"smiles": "Cn1nc(-c2ccc(Cl)cc2)c2cc(C(=O)NCCCN3CCCC3)sc21", "AC50": 15.8}
{"smiles": "C=C1Nc2cc(-c3ccc(Cl)cc3)nn2C(NCCN(C)C)=C1C", "AC50": 31.6}
{"smiles": "CCN1CCN(C(=S)Nc2ccc3nc(N4CCN(C)CC4)cc(C)c3c2)CC1", "AC50": 26.7}
{"smiles": "Cc1c(C(=O)Nc2ccc(S(=O)(=O)N(C)C3CCN(C)CC3)cc2)oc2c(Cl)cccc12", "AC50": 24.1}
{"smiles": "CCN(CC)CCNC(=S)Nc1ccc2nc(N3CCN(CC)CC3)cc(C)c2c1", "AC50": 31.9}
{"smiles": "OCCNc1nc(Nc2ccccc2Cl)nc2ccccc12", "AC50": 23.9}
{"smiles": "c1ccc(CNc2nc(NCc3ccccc3)c3ccccc3n2)cc1", "AC50": 7.8}
{"smiles": "CCCCN(CC)CCCNC(=S)Nc1ccc2nc(N3CCN(C)CC3)cc(C)c2c1", "AC50": 44.9}
{"smiles": "Cc1cc(C)c2sc(N(CCCN(C)C)C(=O)CN3C(=O)c4ccccc4C3=O)nc2c1", "AC50": 26}
{"smiles": "COc1cc2ccccc2cc1C(=O)N(CCN(C)C)c1nc2c(OC)ccc(OC)c2s1", "AC50": 33.3}
{"smiles": "Cn1nc(-c2ccc(Cl)cc2)c2cc(C(=O)NCCCN3CCCCCC3)sc21", "AC50": 23.9}
{"smiles": "CCCNc1nc(NCc2cccnc2)nc(N2CCOCC2)n1", "AC50": 26.5}
{"smiles": "CCN(CC)CCN(C(=O)C1=COCCO1)c1nc2c(OC)ccc(OC)c2s1", "AC50": 48.6}
{"smiles": "Cc1ccc(-c2nc(C(=O)NCCCN3CCOCC3)cc3c2[nH]c2ccccc23)cc1", "AC50": 30.8}
{"smiles": "CC1(C)CC(NC(=O)c2ccc(Cl)c(S(=O)(=O)N(Cc3ccccc3)c3ccccc3)c2)CC(C)(C)N1", "AC50": 22.1}
{"smiles": "Cc1ccc2sc(N(CCCN(C)C)C(=O)c3ccc(S(=O)(=O)N(C)Cc4ccccc4)cc3)nc2c1C", "AC50": 20.4}
